Key:
[1] = tested on: complete atrioventricular block (CAVB) model in rats; assay: 3-lead surface ECG in rat complete atrioventricular block model; assay type: in vivo
Procedure: (§1) The inventors next studied the effects of administering TBX18 mRNA to a rat model of a complete atrioventricular block. […] In this study, the inventors created a complete atrioventricular block (CAVB) model in rats and monitored the rats for one week to confirm stable and persistent CAVB. Next, TBX18 mRNA was injected into the ventricular apex of each rat and a telemetry device was implanted. Some rats received a high dose of TBX18 mRNA, which was 300 μg TBX mRNA with 205 μl RNA free PBS. The inventors continuously monitored and recorded data from the telemetry device including electrocardiograms for 21 days. The inventors performed 3-lead surface ECGs on anesthetized animals on days 7, 14 and 21 with an isoproterenol challenge, and harvested the heart on day 21.
The inventors determined if there was antegrade conduction (meaning that the direction of cardiac conduction occurred from the SA node, AV node and down toward the apex of the heart) or retrograde conduction (meaning that the direction of cardiac conduction occurred from the site of TBX18 delivery which was the apex of the left ventricle). In order to determine this, the inventors determined a baseline ECG under anesthesia before TBX18 mRNA injection by recording three-lead surface ECGs for ten minutes while the rat was asleep under anesthesia. Recordings confirmed the presence of AV conduction block with multiple P waves between each QRS complex, inconsistent P-R intervals, and a relatively low heart rate of 100 bpm, compared to a healthy rate of over 300 bpm for rats.

[2] = tested on: neonatal rat ventricular cardiomyocytes; assay: Nuclear localization of TBX18 (FLAG) by immunostaining; assay type: cell-based; conditions: 24 hrs post-transfection
Source text: TBX18 is a transcription factor, and thus should be targeted to the nuclei upon proper translation from mRNA. Freshly-isolated neonatal rat ventricular cardiomyocytes were transfected with IVT mRNA for human TBX18 gene. TBX18 mRNA was designed with a tag peptide (DYKDDDDK (SEQ ID NO:9, also known as a “FLAG” epitope) fused to the C-terminal end of TBX18 for subcellular identification of TBX18 with an antibody against FLAG. Sarcomeric alpha-actinin (α-SA) and DAPI label cardiomyocytes and all nuclei, respectively. Arrows (co-localization of FLAG and DAPI) indicate nuclear localization of TBX18 protein. Three transfection conditions were tested in a 24-well plate, and immunostaining was performed at 24 hrs post-transfection.

[3] = tested on: complete atrioventricular block (CAVB) model in rats; assay: Telemetry ECG in conscious rats with complete atrioventricular block; assay type: in vivo, rat; conditions: for heart rate during isoproterenol treatment: conscious
Procedure: as §1
ECG data was then compared with telemetry data. Before injection of TBX18 mRNA, telemetry biopotential electrodes were sutured to the chest wall and housed in the abdominal cavity of the rat. Telemetry 2-lead ECG signal was recorded wirelessly for conscious, awake rats. The day before injection of TBX18 mRNA, AV block was present in ECG recordings with an average heart rate of 120 bpm, and these values were used as the baseline.

[4] = tested on: porcine model of complete heart block; assay: Porcine model of complete heart block; assay type: in vivo, pig
Source text: The inventors next sought to test the TBX18 mRNA in a large animal model, specifically a porcine model, of complete heart block. The inventors used a control of GFP mRNA+A83-01. On Day 1, the inventors created an intracardiac map by implanting a pacemaker and administered the TBX18 mRNA or control. Weeks 2, 4, and 6 after administration included an interrogation of the pacemaker and an isoproterenol challenge to measure the animals' maximum heart rate (max HR). In Week 6, arrythmia testing and intracardiac mapping were performed and vital organs were harvested. […] The proper diurnal response in TBX18-injected pig is in line with the average heart rate data from FIG. 18.

[5] = tested on: neonatal rat ventricular cardiomyocytes; assay: TBX18 protein expression by immunoblot normalized to GAPDH; assay type: cell-based; conditions: 333 ng mRNA with ViroMer Red, 96-well plate
Procedure: Freshly-isolated neonatal rat ventricular cardiomyocytes were transfected with IVT mRNA for human TBX18 gene. Somatic gene transfer was performed by adding 333 ng of TBX18 IVT mRNA with a transfection reagent, ViroMer Red, to a well in a 96-well plate seeded with the neonatal rat ventricular cardiomyocytes. TBX18 protein expression from the transfected IVT mRNA in the cardiomyocytes were quantitated by specific antibodies to TBX18 on immunoblots and normalized to an endogenous housekeeping protein, GAPDH. […] The TBX18 protein expression was also transient, in line with the expression kinetics of the delivered mRNA. This transient expression of TBX18 closely mimicked its native expression during embryonic development, and is ideal for the intended purpose as a reprogramming agent to convert ordinary heart muscle cells to specialized cardiac pacemaker cells. In FIG. 12, D denotes days after transfection, and each time point consists of two technical replicates.

[6] = tested on: neonatal rat ventricular myocytes; assay: Spontaneous electrical activity on multi-electrode array; assay type: cell-based; conditions: control cardiomyocytes: infrequent and low rate activity
Procedure: Spontaneous electrical activity from neonatal rat ventricular myocytes were recorded on a non-invasive, multi-electrode array platform. […] The number of electrical activity (Count) was plotted as a function of spontaneous beating rates (in beats per minute, BPM) of the cardiomyocytes.

[7] = tested on: rat model of complete heart block; assay: Effect of TGF-beta small molecule inhibitor on ventricular pacing with TBX18 mRNA; assay type: in vivo; conditions: A83-01 released by osmotic pump
Procedure: On Day 0, an osmotic pump releasing A83-01 (a TGF-beta inhibitor, Sigma Aldrich) was implanted into the rats. On Day 1, TBX18 mRNA was injected into the rats and a telemetry device was also implanted. Two doses of TBX18 mRNA were given to the rats: (i) a low dose of 100 μg TBX18 mRNA with 68.4 μl RNA-free phosphate-buffered saline (PBS), or (ii) a high dose of 300 μg TBX18 mRNA with 205 μl RNA-free PBS. A continuous telemetry recording of each rat's electrocardiogram (ECG) was made for 21 days after implantation of the telemetry device. In addition, 3-lead surface ECGs were performed on anesthetized animals on Days 7, 14, and 21 along with an isoproterenol challenge. The heart was harvested from each animal on Day 21.
The inventors then determined the effects of including a TGF-beta small molecule inhibitor on ventricular pacing with TBX18 mRNA (FIG. 16).

[8] = tested on: neonatal rat ventricular cardiomyocytes; assay: TBX18 IVT mRNA entry by qPCR normalized to GAPDH; assay type: cell-based; conditions: 333 ng mRNA with ViroMer Red, 96-well plate
Procedure: Freshly-isolated neonatal rat ventricular cardiomyocytes were transfected with IVT mRNA for human TBX18 gene. Somatic gene transfer was performed by adding 333 ng of TBX18 IVT mRNA with a transfection reagent, ViroMer Red, to a well in a 96-well plate seeded with the neonatal rat ventricular cardiomyocytes. TBX18 IVT mRNA that successfully entered the cardiomyocytes were quantitated by quantitative real-time PCR (qPCR), and the TBX18 mRNA level was normalized to an endogenous housekeeping gene, GAPDH, over time.

Substance: TBX18 mRNA: IVT mRNA for human TBX18 gene, with FLAG tag peptide fused to the C-terminal end of TBX18
- biological cardiac pacing ([1]; focal intramyocardial injection into ventricular apex): created in vivo biological cardiac pacing
- conduction vector (cardiac axis mapping) ([1]; one week after injection, baseline 77 degrees): 49 degrees
- heart rate with isoproterenol ([1]; one week after injection, isoproterenol challenge): 229 bpm
- average heart rate ([1]; one week after injection, under anesthesia, baseline 100 bpm): 120 bpm
- average heart rate ([1]; three weeks after injection): 137 bpm
- conduction vector of normal QRS complexes ([1]; three weeks after injection, anterograde): 48 degrees
- conduction vector of transient QRS complexes with isoproterenol ([1]; three weeks after injection, isoproterenol, retrograde): −110 degrees
- conduction vector of PVCs ([1]; three weeks after injection, retrograde): −116 degrees
- cardiomyocytes positive for nuclear TBX18 (FLAG positive) ([2]; 0.5 μg of IVT mRNA+0.2 μl of ViroMer Red): 4%
- cardiomyocytes positive for nuclear TBX18 (FLAG positive) ([2]; 1 μg of IVT mRNA+0.1 μl of ViroMer Red): 2%
- cardiomyocytes positive for nuclear TBX18 (FLAG positive) ([2]; 1 μg of IVT mRNA+0.2 μl of ViroMer Red): 21%
- ventricular pacing by continuous recording of heart rate and heart rate histograms ([3]; histograms on Days 21 after injection): created ventricular pacing
- heart rate during isoproterenol treatment ([3]; one week after delivery, baseline 120 bpm): 265 bpm
- heart rate during isoproterenol treatment ([3]; three weeks after delivery): 260 bpm
- heart rate during isoproterenol treatment ([3]; two weeks after delivery): 206 bpm
- R-R interval as the pig becomes awake in the morning ([4]; diurnal response): shorter R-R interval (faster heart rate)
- time after delivery within which ventricular pacing was created ([4]; pig, in vivo): 7 to 10 days
- time post-transfection to TBX18 protein expression [5]: less than 6 hours
- spontaneous pacemaker activity [6]: highly active, high rate pacemaker activity
- effect on ventricular pacing / block [7]: created a complete ventricular block
- entry of IVT mRNA into cardiomyocytes [8]: efficient entry

Source: patent publication US20210000879A1, “METHODS AND COMPOSITIONS FOR MRNA-BASED MODULATION AND DETECTION OF CELL PHENOTYPES” (Georgia Tech Research Corporation, priority 2018, published 2021)
